Data as given in patent US20140073801A1, “PYRROLIDINE DERIVATIVES AS SELECTIVE GLYCOSIDASE INHIBITORS AND USES THEREOF” (Summit Corporation Plc, priority 2011, published 2014).

Key:
[1] = tested on: O-GlcNAc modified proteins in PC-12 cells or SH-SY5Y cells; assay: Western blot analyses of O-GlcNAc modified proteins in cells; type: cell-based; details: western blot, cells dosed 4 hours at 37° C.; cell line not given
Method: PC-12 cells or SH-SY5Y cells were dosed with the test compound or vehicle control at 37° C. for 4 hours. Once the incubation was completed the media was removed and cells were lysed. Extracted protein was then used for Western blot analysis using standard molecular biology techniques. The resulting membrane was probed with antibodies specific for tau phosphorylation sites (pSer396, pSer422, pThr231, pSer262) or with antibodies specific for O-GlcNAcylation sites (RL-2 or CTD110.6). The primary antibodies were visualised using appropriate secondary conjugated with the fluorophores Alexa 532 or Alexa 488. Actin was visualised using a FITC conjugated primary antibody. Relative quantification was measured in relation to the actin signal using Image lab software (BRL). Marked increases in O-GlcNAcylated proteins within the cells were observed as compared to controls when cells were dosed with test compound.

[2] = target: T1, human OGA (Homo sapiens, UniProt O60502); assay: Determination of IC50 values for inhibition of human OGA; type: biochemical
T1 construct: made in house
T1 sequence (O60502 1-916): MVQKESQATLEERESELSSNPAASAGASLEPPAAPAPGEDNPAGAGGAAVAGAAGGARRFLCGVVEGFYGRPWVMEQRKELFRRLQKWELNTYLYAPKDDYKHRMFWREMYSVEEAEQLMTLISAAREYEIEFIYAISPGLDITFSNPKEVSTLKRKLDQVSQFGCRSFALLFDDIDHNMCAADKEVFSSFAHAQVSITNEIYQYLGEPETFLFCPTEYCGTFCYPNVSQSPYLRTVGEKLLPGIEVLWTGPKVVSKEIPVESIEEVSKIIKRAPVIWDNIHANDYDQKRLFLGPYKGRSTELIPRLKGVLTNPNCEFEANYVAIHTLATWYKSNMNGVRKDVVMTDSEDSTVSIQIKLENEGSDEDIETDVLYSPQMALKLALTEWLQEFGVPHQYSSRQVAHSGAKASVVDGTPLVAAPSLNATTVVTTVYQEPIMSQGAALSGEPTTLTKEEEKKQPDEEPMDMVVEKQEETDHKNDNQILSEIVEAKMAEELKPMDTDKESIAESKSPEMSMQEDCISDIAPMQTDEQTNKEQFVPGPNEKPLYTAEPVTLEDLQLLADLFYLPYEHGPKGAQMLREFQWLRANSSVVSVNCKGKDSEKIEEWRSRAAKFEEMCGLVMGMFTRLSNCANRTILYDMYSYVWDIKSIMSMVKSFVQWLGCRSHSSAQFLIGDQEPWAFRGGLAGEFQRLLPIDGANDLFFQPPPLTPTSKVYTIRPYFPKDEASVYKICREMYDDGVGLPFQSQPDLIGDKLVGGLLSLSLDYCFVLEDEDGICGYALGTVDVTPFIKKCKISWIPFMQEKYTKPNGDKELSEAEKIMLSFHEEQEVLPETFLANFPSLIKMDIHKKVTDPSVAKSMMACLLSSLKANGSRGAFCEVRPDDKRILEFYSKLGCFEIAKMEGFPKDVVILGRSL
Method: Inhibitors identified from the screen described in Example 1 were evaluated for IC50 using a procedure adapted from Biochem. J. 2009, 420, 221-227. IC50 determination was carried out using a range of inhibitor concentrations from 300 μM to 0.003 μM or 100 μM to 0.001 μM. IC50 values were calculated using XLFit 4.

[3] = tested on: human β-hexosaminidase [human placenta] (HexA/B); assay: Determination of IC50 values for inhibition of human β-hexosaminidase; type: biochemical; details: ratio
Method: (§1) Inhibitors identified from the screen described in Example 1 were evaluated for IC50 against human β-hexosaminidase [human placenta, Sigma-Aldrich] using a range of inhibitor concentrations from 300 μM to 0.003 μM or 100 μM to 0.001 μM and the following reaction conditions:
(§2) Reactions were carried out at room temperature for thirty minutes and then quenched through the addition of 150 μl 0.5M Na2CO3. Fluorescence readings were taken at excitation wavelength 360 nm and emission wavelength 450 nm. IC50 values were calculated using XLFit 4. The selectivity ratio for inhibition of human O-GlcNAcase over human β-hexosaminidase is defined here as:
(§3) IC50(human β-hexosaminidase)/IC50(Human OGA)

[4] = target: T2, human β-hexosaminidase [human placenta] (HexA/B); assay: as above; type: biochemical; details: human β-hexosaminidase, human placenta; room temperature, thirty minutes
T2 construct: other: human β-hexosaminidase, human placenta; room temperature, thirty minutes
Method: as §1, §2, §3

[5] = target: T1, human OGA; assay: Determination of Ki values for inhibition of human OGA (4MU-GlcNAc substrate); type: biochemical; details: 2 nM human OGA, McIlvaine buffer pH 7.4, one hour
Method: Enzymatic reactions were carried out in McIlvaine buffer (0.2M Na2PO4, 0.1M citric acid; pH 7.4) using 2 nM human OGA and 4MU-GlcNAc as substrate in the presence of inhibitor. For the Ki of AXX inhibitor concentrations were 0, 20, 40, 80, 160 and 320 nM [for the Ki determination of other compounds either the same concentrations or similar concentrations were used] and 4MU-GlcNAc concentrations were 50, 100, 200, 400, 800, 1600, and 3200 μM. Reactions were left for one hour. […] Modes of inhibition were determined by Lineweaver-Burke analysis and Ki values were determined using GraphPad 5 Prism non-linear regression analysis.

CCCNC(=O)C[C@H]1N[C@H](CO)[C@@H](O)[C@@H]1O [Compound A052, 2-((2R,3R,4R,5R)-3,4-dihydroxy-5-(hydroxymethyl)pyrrolidin-2-yl)-N-propylacetamide]
EC50 [1]: 1070 nM
IC50 [2]: 113 nM
Selectivity: IC50(human β-hexosaminidase)/IC50(Human OGA) [3]: >2654
IC50 [4]: > 300000 nM

CCCCCCN1[C@H](CO)[C@@H](O)[C@H](O)[C@H]1CC(=O)NCCC [Compound A055, 2-((2R,3R,4R,5R)-1-hexyl-3,4-dihydroxy-5-(hydroxymethyl)pyrrolidin-2-yl)-N-propylacetamide]
EC50 [1]: 3720 nM
IC50 [2]: 119 nM
Selectivity: IC50(human β-hexosaminidase)/IC50(Human OGA) [3]: >2529
IC50 [4]: > 300000 nM

CCN1[C@H](CC(=O)NC)[C@H](O)[C@H](O)[C@H]1CO [Compound A019, 2-((2R,3S,4R,5R)-1-ethyl-3,4-dihydroxy-5-(hydroxymethyl)pyrrolidin-2-yl)-N-methylacetamide]
EC50 [1]: 1900 nM
IC50 [2]: 69 nM
Selectivity: IC50(human β-hexosaminidase)/IC50(Human OGA) [3]: >4366
IC50 [4]: > 300000 nM

CN(C)c1ccc(S(=O)(=O)NCCCCCCN2[C@H](CC(N)=O)[C@H](O)[C@H](O)[C@H]2CO)c2ccccc12 [Compound A015, 2-((2R,3S,4R,5R)-1-(6-(4-(dimethylamino)naphthalene-1-sulfonamido)hexyl)-3,4-dihydroxy-5-(hydroxymethyl)pyrrolidin-2-yl)acetamide]
EC50 [1]: 80 nM
IC50 [2]: < 3 nM
Selectivity: IC50(human β-hexosaminidase)/IC50(Human OGA) [3]: >3666
IC50 [4]: 11000 nM

CCNC(=O)C[C@H]1N[C@H](CO)[C@@H](O)[C@@H]1O [Compound A050, 2-((2R,3R,4R,5R)-3,4-dihydroxy-5-(hydroxymethyl)pyrrolidin-2-yl)-N-ethylacetamide]
EC50 [1]: 2720 nM
IC50 [2]: 412 nM
Selectivity: IC50(human β-hexosaminidase)/IC50(Human OGA) [3]: >728
IC50 [4]: > 300000 nM

CCCCCCN1[C@H](CO)[C@@H](O)[C@H](O)[C@H]1CC(=O)NCC [Compound A053, N-ethyl-2-((2R,3R,4R,5R)-1-hexyl-3,4-dihydroxy-5-(hydroxymethyl)pyrrolidin-2-yl)acetamide]
EC50 [1]: 1410 nM
IC50 [2]: 62.9 nM
Selectivity: IC50(human β-hexosaminidase)/IC50(Human OGA) [3]: >4769
IC50 [4]: > 300000 nM

CNC(=O)C[C@@H]1[C@H](O)[C@H](O)[C@@H](CO)N1CCc1ccccc1 [Compound A010, 2-((2R,3S,4R,5R)-3,4-dihydroxy-5-(hydroxymethyl)-1-phenethylpyrrolidin-2-yl)-N-methylacetamide]
EC50 [1]: 1540 nM
IC50 [2]: 9 nM
Selectivity: IC50(human β-hexosaminidase)/IC50(Human OGA) [3]: 3666
IC50 [4]: 33000 nM

CNC(=O)C[C@H]1N[C@H](CO)[C@@H](O)[C@H]1O [Compound A007, 2-((2R,3S,4R,5R)-3,4-dihydroxy-5-(hydroxymethyl)pyrrolidin-2-yl)-N-methylacetamide]
EC50 [1]: 4000 nM
IC50 [2]: 102 nM
Selectivity: IC50(human β-hexosaminidase)/IC50(Human OGA) [3]: >3000
IC50 [4]: > 300000 nM

CNC(=O)C[C@@H]1[C@H](O)[C@H](O)[C@@H](CO)N1CCCCCNS(=O)(=O)c1ccc(C)cc1 [Compound A064, 2-((2R,3S,4R,5R)-3,4-dihydroxy-5-(hydroxymethyl)-1-(5-(4-methylphenylsulfonamido)pentyl)pyrrolidin-2-yl)-N-methylacetamide]
EC50 [1]: 127 nM
IC50 [2]: < 3 nM
Selectivity: IC50(human β-hexosaminidase)/IC50(Human OGA) [3]: >3366
IC50 [4]: 10100 nM

CNC(=O)C[C@@H]1[C@H](O)[C@H](O)[C@@H](CO)N1CCCC(C)C [Compound A018, 2-((2R,3S,4R,5R)-3,4-dihydroxy-5-(hydroxymethyl)-1-(4-methylpentyl)pyrrolidin-2-yl)-N-methylacetamide]
EC50 [1]: 931 nM
IC50 [2]: 14 nM
Selectivity: IC50(human β-hexosaminidase)/IC50(Human OGA) [3]: 5000
IC50 [4]: 69000 nM

CCCCCCCCCN1[C@H](CC(=O)NCCC)[C@H](O)[C@H](O)[C@H]1CO [Compound A008, 2-((2R,3S,4R,5R)-3,4-dihydroxy-5-(hydroxymethyl)-1-nonylpyrrolidin-2-yl)-N-propylacetamide]
Ki [5]: 55 nM
IC50 [2]: 12 nM
Selectivity: IC50(human β-hexosaminidase)/IC50(Human OGA) [3]: >25000
IC50 [4]: > 300000 nM

CCCCCCN1[C@H](CC(=O)NCC(C)C)[C@H](O)[C@H](O)[C@H]1CO [Compound A027, 2-((2R,3S,4R,5R)-1-hexyl-3,4-dihydroxy-5-(hydroxymethyl)pyrrolidin-2-yl)-N-isobutylacetamide]
IC50 [2]: 11600 nM
Selectivity: IC50(human β-hexosaminidase)/IC50(Human OGA) [3]: >25.95
IC50 [4]: > 300000 nM

O=C(C[C@@H]1[C@H](O)[C@H](O)[C@@H](CO)N1CCCc1ccccc1)NCCO [Compound A029, 2-((2R,3S,4R,5R)-3,4-dihydroxy-5-(hydroxymethyl)-1-(3-phenylpropyl)pyrrolidin-2-yl)-N-(2-hydroxyethyl)acetamide]
IC50 [2]: 125000 nM
Selectivity: IC50(human β-hexosaminidase)/IC50(Human OGA) [3]: >2.38
IC50 [4]: > 300000 nM

CNC(=O)C[C@@H]1[C@H](O)[C@H](O)[C@@H](CO)N1CCCCCNS(=O)(=O)c1ccc(Oc2ccccc2)cc1 [Compound A067, 2-((2R,3S,4R,5R)-3,4-dihydroxy-5-(hydroxymethyl)-1-(5-(4-phenoxyphenylsulfonamido)pentyl)pyrrolidin-2-yl)-N-methylacetamide]
IC50 [2]: < 3 nM
Selectivity: IC50(human β-hexosaminidase)/IC50(Human OGA) [3]: >5000
IC50 [4]: 15000 nM

CCNC(=O)C[C@@H]1[C@@H](O)[C@H](O)[C@@H](CO)N1CCCc1ccc(Cl)cc1 [Compound A063, 2-((2R,3R,4R,5R)-1-(3-(4-chlorophenyl)propyl)-3,4-dihydroxy-5-(hydroxymethyl)pyrrolidin-2-yl)-N-ethylacetamide]
EC50 [1]: 1010 nM
IC50 [2]: 36 nM
Selectivity: IC50(human β-hexosaminidase)/IC50(Human OGA) [3]: >8333
IC50 [4]: > 300000 nM

CCCCCCN1[C@H](CO)[C@H](O)[C@@H](O)[C@H]1CC(=O)NCCO [Compound A030, 2-((2R,3S,4S,5R)-1-hexyl-3,4-dihydroxy-5-(hydroxymethyl)pyrrolidin-2-yl)-N-(2-hydroxyethyl)acetamide]
IC50 [2]: 94900 nM
Selectivity: IC50(human β-hexosaminidase)/IC50(Human OGA) [3]: >3.16
IC50 [4]: > 300000 nM

CNC(=O)[C@H]1N[C@@H](CO)[C@@H](O)[C@@H]1O [Compound A042, (2S,3R,4R,5S)-3,4-dihydroxy-5-(hydroxymethyl)-N-methylpyrrolidine-2-carboxamide]
IC50 [2]: 2800 nM
Selectivity: IC50(human β-hexosaminidase)/IC50(Human OGA) [3]: 0.89
IC50 [4]: 2500 nM

CCCCCCN1[C@H](CO)[C@@H](O)[C@H](O)[C@H]1CC(=O)NC [Compound A046, 2-((2R,3R,4R,5R)-1-hexyl-3,4-dihydroxy-5-(hydroxymethyl)pyrrolidin-2-yl)-N-methylacetamide]
IC50 [2]: 23.7 nM
Selectivity: IC50(human β-hexosaminidase)/IC50(Human OGA) [3]: 0.42
IC50 [4]: 9.9 nM
